Target: Acetylcholinesterase (Electrophorus electricus, UniProt O42275)
Sequence (O42275 whole entry): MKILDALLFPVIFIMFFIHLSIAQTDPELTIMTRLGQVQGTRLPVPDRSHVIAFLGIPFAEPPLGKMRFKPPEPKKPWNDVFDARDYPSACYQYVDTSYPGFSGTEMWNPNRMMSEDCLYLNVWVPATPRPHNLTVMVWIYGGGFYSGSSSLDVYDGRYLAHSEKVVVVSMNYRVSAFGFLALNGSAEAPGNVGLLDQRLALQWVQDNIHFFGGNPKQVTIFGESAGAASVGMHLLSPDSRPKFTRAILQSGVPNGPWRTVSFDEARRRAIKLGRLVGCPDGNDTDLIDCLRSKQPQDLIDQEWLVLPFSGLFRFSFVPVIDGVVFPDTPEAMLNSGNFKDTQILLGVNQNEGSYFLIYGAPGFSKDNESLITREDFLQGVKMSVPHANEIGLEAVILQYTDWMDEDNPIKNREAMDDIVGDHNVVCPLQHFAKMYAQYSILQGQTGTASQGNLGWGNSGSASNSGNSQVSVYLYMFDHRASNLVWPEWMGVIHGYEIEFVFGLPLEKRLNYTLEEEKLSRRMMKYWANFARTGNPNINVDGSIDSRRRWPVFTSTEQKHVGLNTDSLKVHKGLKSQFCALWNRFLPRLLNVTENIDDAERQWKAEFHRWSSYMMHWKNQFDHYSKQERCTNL
Description: Inhibition of Electrophorus electricus acetylcholinesterase using acetylthiocholineiodide as substrate measured at 30 secs intervals over 9 mins by Ellman's colorimetric assay

SMILES | IC50 [µM]
C#Cc1ccc(OC(=O)OCCC(C)(C)C)cc1 | 59
C#Cc1ccc(NC(=O)OCC[Si](C)(C)C)cc1 | 34.4

— ChEMBL document CHEMBL3632557, “Ethynylphenyl carbonates and carbamates as dual-action acetylcholinesterase inhibitors and anti-inflammatory agents” (Bioorg Med Chem Lett, 2015)
